Reference: patent publication EP1638538B1, “DOSAGE FORM” (priority 2003, dated 2005)

Assay: Time for complete absorption of sunflower oil into compressed sporopollenin tablets with an absorption aiding liquid
Type: physicochemical
Description: Sporopollenin (0.5 g) tablets were prepared by compressing in a 16 mm die at a pressure of 10 tonnes for 2 min. […] The resulting powder was dried in a dessicator over P2O5 in oven at 50°C until constant weight.

[1] = sunflower oil (1 ml) + liquid (1 ml), 0.5 g tablet, room temperature

Question: With `ClCCl` [dichloromethane] as the compound, how does the “Time for complete absorption” value [1] read?
Answer: The value was 35 s.

Question: With `CCOC(C)=O` [ethyl acetate] as the compound, how does the “Time for complete absorption” value [1] read?
Answer: Its value is 50 s.

Question: For `CC#N` [acetonitrile], which “Time for complete absorption” value [1] is on record?
Answer: Its value is 20 s.

Question: Which “Time for complete absorption” value [1] does the source give for `CCO` [ethanol] here?
Answer: Its value is 20 s.

Question: What about the “Time for complete absorption” value (sunflower oil, repeated at 40 °C) of the same compound?
Answer: Its value is 12 s.
